Paper PMC12062780, “Validation of ion mobility spectrometry ‐ mass spectrometry as a screening tool to identify type II kinase inhibitors of FGFR1 kinase” (Rapid Communications in Mass Spectrometry, 2021)

What was measured:
FGFR1 [1] = molecular target: T1, FGFR1 (Homo sapiens, UniProt P11362, C488A/C584S); test: ESI-CIU-IMS-MS collision-induced unfolding of FGFR1 after incubation with inhibitor; conditions: for IMS-MS Drift Time of unfolded conformer / Intensity vs base peak (5.5 ms) of the unfolded conformer at ca 7.6 ms: 11+ FGFR1 ions
T1 construct: made in house; host or cells: E. coli
T1 sequence (P11362 with tags, fused parts or gaps C488A/C584S): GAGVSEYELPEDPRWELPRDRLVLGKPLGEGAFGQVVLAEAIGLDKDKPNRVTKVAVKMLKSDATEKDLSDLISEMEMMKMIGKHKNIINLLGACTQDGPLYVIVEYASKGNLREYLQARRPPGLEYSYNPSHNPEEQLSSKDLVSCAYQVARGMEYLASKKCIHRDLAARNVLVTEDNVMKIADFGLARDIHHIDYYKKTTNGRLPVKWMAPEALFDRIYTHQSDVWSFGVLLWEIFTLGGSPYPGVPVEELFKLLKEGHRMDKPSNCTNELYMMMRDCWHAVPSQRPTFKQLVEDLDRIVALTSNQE
Experimental: FGFR1 (2 μM) and inhibitors (8 μM) were incubated separately in ammonium acetate (100 mM) for 1 h at room temperature prior to analysis. A Synapt G2‐S travelling‐wave ion mobility spectrometry ‐ mass spectrometer equipped with a nano‐ESI source was used for all sample analyses (Waters Corp., Manchester, UK). Samples were analysed by nano‐ESI from in‐house fabricated gold–palladium‐coated borosilicate capillaries assembled using a P‐97 micropipette puller (Sutter Instrument Co., Novato, CA, USA) and a sputter coater (Polaron SC7620; Quorum Technologies Ltd, Kent, UK). The following instrument parameters were set: capillary voltage 1.8 kV, cone voltage 30 V, source temperature 100°C, backing pressure 9.3 mbar, travelling‐wave height 40 V, travelling‐wave speed 500 m/s, IMS He gas flow rate 150 mL/min, IMS N2 gas flow rate 50 mL/min. For the collision‐induced unfolding (CIU) experiments, the trap voltage was increased to 21 V or 24 V and the transfer voltage was maintained at 4 V. Data were processed by use of the MassLynx (version 4.1) and Driftscope software supplied with the mass spectrometer. The m/z scale was calibrated using a separate introduction of aqueous CsI at 1 mg/mL.
To see if type I and type II inhibitors affect the conformational profile of FGFR1, the protein was incubated with each inhibitor separately prior to nano‐ESI‐CIU‐IMS‐MS analysis. All charge‐state ions arising from the FGFR1–ligand complexes (selected individually by the initial quadrupole analyser) were subjected to CIU‐induced unfolding in the trap prior to IMS separation.
During these analyses, the trap energy was increased and protein unfolding was monitored by examining the drift times of the protein ions during their transit through the IMS cell.

[2] = molecular target: T2, Human FGFR1 consisting of residues 457–765 with C488A and C584S mutations (Homo sapiens, UniProt P11362, C488A/C584S); test: Isothermal titration calorimetry (ITC) of inhibitor binding to FGFR1; conditions: 25°C, type I TKIs
T2 construct: made in house; host or cells: E. coli
T2 sequence (P11362 with tags, fused parts or gaps C488A/C584S): as above
Experimental: ITC was carried out using a Microcal ITC200 instrument (GE Healthcare Biosciences, Amersham, UK). FGFR1 was dialysed against the experimental buffer (20 mM Tris/HCl, 100 mM NaCl and 5 mM DTT pH 7.8) prior to titration with inhibitor. Inhibitors were dissolved in DMSO, and experimental buffer DMSO concentration was matched. Titrations were performed at 25°C with 2 μL injections of inhibitor (200 μM) every 180 s into the cell containing FGFR1 (20 μM) with stirring at 1000 rpm. Results were analysed in Origin (OriginLab, Northampton, MA, USA) and fitted using a one‐site binding model.

FGFR1 [3] = molecular target: T1, FGFR1; test: Microscale thermophoresis (MST), label-free; type: binding; conditions: type I TKI; MST per b30 and Figure S5 (Figure 2 legend says ITC), 25°C
Experimental: Thermophoresis was used to measure the binding interactions between FGFR1 and compounds. The MST measurements were performed using a Monolith NT.LabelFree instrument (NanoTemper Technologies GmbH, Munich, Germany). In this instrument, an infrared laser beam and light (fluorescence excitation and emission) was coupled with a dichroic mirror and focused on the sample. When the IR‐laser was on, it heated a small area of the sample and created a temperature gradient. The total fluorescence of the focused area was measured when the IR‐laser was off (Fcold) and on (Fhot). The capillaries were filled with the sample (less than 5 μL was required for each capillary). The following MST settings were used: LED power 70%, MST laser power 40%, fluorescence before (5 s), MST on (30 s), fluorescence after (3 s). […] After the capillary scan thermophoresis FGFR1 was measured for 30 s in the presence of the varied concentrations of compound. Fnorm = Fhot/Fcold was analysed and plotted by NT Analysis software (NanoTemper Technologies GmbH). Fraction bound = (Fnorm – Fnorm [unbound])/(Fnorm (bound) – Fnorm (unbound)) was calculated and the binding data were fitted to a Hill function (n = 1) using the instrument analysis software. To eliminate artifacts caused by labelling or modifying proteins, the fluorescence of tryptophan residues was used to monitor the local protein concentration. […]

FGFR1 kinase domain = molecular target: T3, FGFR1 kinase domain (Homo sapiens, UniProt P11362, C488A/C584S); test: X-ray crystallography of FGFR1–ligand complexes (DFG loop status); type: binding; conditions: co-crystal structure
T3 construct: Human FGFR1 consisting of residues 457–765 with C488A and C584S mutations; made in house; host or cells: E. coli
T3 sequence (P11362 457-765 C488A/C584S): as the sequence (P11362 with tags, fused parts or gaps C488A/C584S) above, with G1L counted along it
Experimental: Data were integrated and scaled using XDS[23] and SCALA[24] as implemented within the autoPROC software package.[25] Data reduction and structure solution by molecular replacement were carried out using programs from the CCP4 software suite.[26] […] The protein–inhibitor complex model was refined using Buster,[28] interspersed with rounds of manual model building in Coot.[29]

FGFR1 [4] = test system: FGFR1; set-up: method as in PMID 22141913; conditions: cited from earlier work
FGFR1 [5] = conditions: read-out: in vitro IC50 against FGFR1; cited from earlier work

Row | Compound | IMS-MS Drift Time of unfolded conformer (FGFR1 [1]; 21 V Trap) [ms] | Intensity vs base peak (5.5 ms) of the unfolded conformer at ca 7.6 ms (FGFR1 [1]; 21 V Trap) [%] | IMS-MS Drift Time of unfolded conformer (FGFR1 [1]; 24 V Trap) [ms] | Intensity vs base peak (5.5 ms) of the unfolded conformer at ca 7.6 ms (FGFR1 [1]; 24 V Trap) [%] | Kd for FGFR1 [2] [nM] | Kd (FGFR1 [3]) [nM] | FGFR1 kinase conformation bound or induced (DFG motif orientation) (FGFR1 kinase domain) | cellular activity against FGFR1 (FGFR1 [4]) | Inhibitor class assigned from CIU profile (FGFR1 [1]; ESI-IMS-MS CIU profile) | IC50 (FGFR1 [5]) [nM]
1 | CC(C)Oc1cc(Nc2ccnc(NCc3cc(C4CC4)no3)n2)n[nH]1 [Compound B] | 7.5 | 29.2 | 7.7 | 50.8 | – | – | – | – | – | –
2 | Cc1cc(Nc2nc(NCCc3cccnc3)ncc2Br)n[nH]1 [Compound C] | 7.5 | 25.0 | 7.5 | 40.7 | – | – | – | – | – | –
3 | Cc1ccc(C(=O)Nc2ccc(CN3CCN(C)CC3)c(C(F)(F)F)c2)cc1C#Cc1cnc2cccnn12 [Ponatinib] | 7.9 | 46.7 | 7.7 | 71.2 | – | – | – | – | – | –
4 | CNC(=O)c1cc(Oc2ccc(NC(=O)Nc3ccc(Cl)c(C(F)(F)F)c3)cc2)ccn1 [Sorafenib] | 7.5 | – | 7.5 | 66.1 | – | – | – | – | type II | 580

Second part, led by results:

Row | IMS-MS Drift Time of unfolded conformer (FGFR1 [1]; 21 V Trap) [ms] | Intensity vs base peak (5.5 ms) of the unfolded conformer at ca 7.6 ms (FGFR1 [1]; 21 V Trap) [%] | IMS-MS Drift Time of unfolded conformer (FGFR1 [1]; 24 V Trap) [ms] | Intensity vs base peak (5.5 ms) of the unfolded conformer at ca 7.6 ms (FGFR1 [1]; 24 V Trap) [%] | Kd for FGFR1 [2] [nM] | Kd (FGFR1 [3]) [nM] | FGFR1 kinase conformation bound or induced (DFG motif orientation) (FGFR1 kinase domain) | Compound | cellular activity against FGFR1 (FGFR1 [4]) | Inhibitor class assigned from CIU profile (FGFR1 [1]; ESI-IMS-MS CIU profile) | IC50 (FGFR1 [5]) [nM]
5 | 7.5 | 27.5 | 7.7 | 43.2 | 36 | – | – | CCCc1cc(Nc2nc(NCc3ccccn3)ncc2Br)n[nH]1 [Compound D] | – | – | –
6 | 7.5 | 24.2 | 7.5 | 45.8 | – | – | – | CNC(=O)c1ccccc1Nc1cc(Nc2cn(C)nc2C)ncc1C(F)(F)F [Compound E] | – | – | –
7 | 7.5 | 30.8 | 7.5 | 45.8 | – | 25000 | DFG in | COc1ccc(C(=O)Nc2cc(-c3ccccc3)[nH]n2)cc1OC [JK-P3] | cellular activity against FGFR1 | – | –
8 | 7.5 | 22.1 | 7.5 | 32.2 | – | 145 | DFG in | CN1CCN(c2ccc(NC(=O)c3n[nH]c4ccccc34)cc2)CC1 [JK-P5] | cellular activity against FGFR1 | – | –
9 | 7.5 | 55.0 | 7.7 | 92.8 | – | – | DFG out | Cc1ccc(F)c(NC(=O)Nc2ccc(-c3cccc4[nH]nc(N)c34)cc2)c1 [Linifanib] | – | – | –
